Measurements reported in patent US20240165214A1, “COMPOSITIONS AND METHODS FOR STABILIZATION OF ALLOSTERIC PROTEINS” (priority 2021, published 2024).

Key:
mAb21 = mAb21 binding time course to immobilized fimbriae and three-state model; conditions: for mAb21 binding over time course: absence of mannose, 10 sec to 2 hours; for keq ± SEM: Keq=kact/kdeact; for time to 50% of the maximal optical density (OD50) of mAb21 binding: presence of soluble mannose
Method: The assays were performed as described previously. In brief. 96-well microtiter plates were coated overnight with purified type 1 fimbriae in 0.02 M NaHCO3 buffer at pH 9.6 (0.1 mg/ml), followed by washes and quenching with 0.2% BSA in PBS. The immobilized fimbriae were incubated with HRP at a concentration of 50 μg/ml for 1 h in the absence or presence of 1% mannose. After extensive washing with PBS, bound horseradish peroxidase was detected by adding 100 μl of TMB substrate (Kirkegaard and Perry Laboratories, KPL) and absorbance was read at 650 nm. […] After the incubation for indicated time, the plates were washed extensively with PBS and FimH-mAb21 complexes were detected using HRP-conjugated goat anti-mouse antibody (Sigma-Aldrich, diluted 1:3000). All incubations, unless stated otherwise, were performed at 37 C. The colorimetric reaction was developed in the presence of TMB substrate at RT and absorbance was read at 650 nm.
For our modeling, we made the following definitions and assumptions.
To estimate kmAb21, we assumed that LD^A27V-PD^FocH is essentially all in HAS in the presence of mannose, so we fit high time-resolution data with a saturable binding model,
We then estimated kact and kdeact for all four variants in the presence and absence of mannose by fitting this model to the data by minimizing the least square error between the model and data points divided by the value of the data. Parameters were estimated independently for the data from each day the experiment was performed, to provide multiple values of each constant.
There were two limitations to using this model to estimate these parameters. […] Second, in two additional conditions—LD^wt-PD^wt in the presence of mannose and LD^A27V-PD^wt in the absence of mannose, a wide range of values of the rate constants produced the same fitting error. To identify a lower bound for the rate constants, we fit kact while holding kdeact constant over a wide range of values and observed that the error was high for low rates but reached a plateau at higher rates. We identified the lowest kdeact and corresponding kact values at which the error was no more than 10% that of all higher values. Throughout this plateau, Keq=kact/kdeact remained within a tight and reproducible range, so was well-determined by the model. For these two conditions, the lower bounds for the two kinetic constants and the upper and lower bound for the equilibrium constants are reported in Table 8.
For the remaining five conditions, the rate constants as well as equilibrium constants were reproducible for a wide range of initial guesses, and between replicate experiments, so we consider these to be reliable. […] These values were consistent with the estimated bounds and are also reported in FIGS. 20C and 20D for illustration.

RNase B = experiment: BLI kinetics of FimH fimbriae binding to RNase B; design: species or system bovine; conditions: RNAseB binding
Method: To test the kinetics of fimbriae binding to RNase B, streptavidin-coated biosensors (SA, FortéBio) were first allowed to bind biotinylated RNase B (applied at a concentration of 10-20 μg/ml in 0.2% BSA HBS). […] The dissociation of the fimbriae-RNase B complexes was conducted in 0.2% BSA HBS. The binding sensorgrams after single reference subtraction (biosensors with 0.2% BSA HBS, or Fab824, respectively) were used for global fitting. […] The standard error that was given in the table for the kinetic parameters relates to the “fit” of the data to the model.

guinea pig RBC = experiment: Red blood cell (RBC) aggregation by bacteria under rocking (Example 1); format: cell-based
Method: Guinea pig RBC (Colorado Serum Company) were washed with PBS three times. 50 μl of RBC suspension (1%) was mixed 1:1 with 50 μl of 4×10^8 of type 1 fimbriated bacteria in a glass plate in the absence and presence of 1% αmm and continuously mixed at high speed on rotator (Model 260300F, Fisher Scientific) for extended period of time. The aggregation of RBC was visually scored and the time at which noticeable aggregation was observed and reported in minutes (min). In some experiments, bacterial cells were first pre-incubated for 5 min with 67 μg/ml of mAbs in the glass plate and then mixed with RBC suspension in the absence and presence of 1% αmm.

[1] = test system: guinea pig red blood cells (RBC); experiment: RBC agglutination (rosette) under static conditions; format: cell-based
Method: (§1) Guinea pig RBC (Colorado Serum Company) were washed with PBS three times. 50 μl of RBC suspension (1%) was mixed 1:1 with 50 μl of 4×10^8 cfu of type 1 fimbriated bacteria in a glass plate in the absence and presence of 1% αmm and continuously mixed by gently rocking at ˜2-3 s^−1. The aggregation of RBC was visually scored and the time at which noticeable aggregation was observed and reported in minutes (min). In some experiments, bacterial cells were first pre-incubated for 5 min with 67 μg/ml of mAbs in the glass plate and then mixed with RBC suspension in the absence and presence of 1% αmm. RBC rosette-formation assay under was performed by mixing equal amounts of serially diluted bacterial sus-pensions (starting from OD540 nm 1.0) and a 1% suspension of RBC in U-bottom microtiter plate wells as described previously.
(§2) Finally, we compared cell binding ability of the FimH-expressing bacteria under static and dynamic conditions by using two classical set-ups with agglutination of guinea pig red blood cells (RBC)—the model cells for type 1 flmbriae-mediated bacterial adhesion. In the static assays, different dilutions of bacteria were combined with a suspension of RBC in U-shaped microtiter wells and allowed to settle without shaking. […]

[2] = test system: guinea pig red blood cells (RBC); experiment: RBC aggregation under dynamic (rocking) conditions; format: cell-based
Method: as §1, §2

HRP = format: binding; conditions: fimbriae pre-treated with mAb824
Method: The assays were performed as described previously. In brief. 96-well microtiter plates were coated overnight with purified type 1 fimbriae in 0.02 M NaHCO3 buffer at pH 9.6 (0.1 mg/ml), followed by washes and quenching with 0.2% BSA in PBS. The immobilized fimbriae were incubated with HRP at a concentration of 50 μg/ml for 1 h in the absence or presence of 1% mannose. After extensive washing with PBS, bound horseradish peroxidase was detected by adding 100 μl of TMB substrate (Kirkegaard and Perry Laboratories, KPL) and absorbance was read at 650 nm. […] All incubations, unless stated otherwise, were performed at 37 C. The colorimetric reaction was developed in the presence of TMB substrate at RT and absorbance was read at 650 nm.

asialofetuin = experiment: FmIH-dependent bacterial adhesion to asialofetuin; format: cell-based
Method: (§3) FmIH-dependent bacterial adhesion was analyzed as described previously with minor modifications (47). Briefly, Immulon 4HBX microtiter plates (Thermo Electron Corp.) were coated with 20 μg/mL of asialofetuin (Sigma-Aldrich) and plates were quenched with 0.2% BSA in PBS. Bacterial suspensions in PBS (OD540=2) were added to each well in a volume of 100 μl and plates were spun for 2 min at 750×g. After extensive washing, bound bacteria were stained with 0.1% (vol/vol) crystal violet for 20 min at room temperature and were washed several times with water. Then 100 μl of 50% (vol/vol) ethanol was added to each well, and the absorbance at a wavelength of 600 nm was measured. For inhibition, bacterial binding was tested in the presence of 1% galactose (Sigma).
as §3, with “[Kisiela D I, et al. (2015) Inhibition and Reversal of Microbial Attachment by an Antibody with Parasteric Activity against the FimH Adhesin of Uropathogenic E. coli. PLoS Pathog 11: e1004857].” for “(47).”, “(ThermoFisher Scientific)” for “(Thermo Electron Corp.)”

[3] = target: T1, FimH^wt (FimH adhesin of E. coli K12) (Escherichia coli K12, UniProt P08191 22-300); experiment: BLI; fimbriae on biotinylated RNase B on streptavidin probe; conformational change model; PBS
T1 construct: also called FimH^K12; LD^A27V-PD^wt
Method: To test the kinetics of fimbriae binding to RNase B, streptavidin-coated biosensors (SA, FortéBio) were first allowed to bind biotinylated RNase B (applied at a concentration of 10-20 μg/ml in 0.2% BSA HBS). […] The dissociation of the fimbriae-RNase B complexes was conducted in 0.2% BSA HBS. […] The standard error that was given in the table for the kinetic parameters relates to the “fit” of the data to the model.

[4] = full-length FmIH in type 1 fimbrial background

FimH^wt: 'wild-type' FimH adhesin from E. coli K12; b242: K12 and J96 express LD^A27V-PD^wt
mAb21 binding over time course (mAb21): only marginal at the later time points
kact ± SEM (mAb21; mannose absence): >8.8 × 10^−5
kdeact ± SEM (mAb21; mannose absence): >2.3 × 10^0
keq ± SEM (mAb21; mannose absence): 1.5 × 10^−3 to 4.0 × 10^−3
kact ± SEM (mAb21; mannose presence): 3.4 × 10^−3 ± 0.4 × 10^−3
kdeact ± SEM (mAb21; mannose presence): 8.7 × 10^−3 ± 1.7 × 10^−2
keq ± SEM (mAb21; mannose presence): 3.9 × 10^−1 ± 0.9 × 10^−1
time to 50% of the maximal optical density (OD50) of mAb21 binding (mAb21): ~3 min
koff higher relative to FimH^FocH (RNase B): ~1000 fold
kon higher relative to FimH^FocH (RNase B): ~50 fold
lower affinity relative to FimH^FocH (RNase B): ~10 fold
Time upon which noticeable aggregation of RBC was observed (guinea pig RBC; mAb824 pre-incubation (67 μg/ml)): >60 min
Time upon which noticeable aggregation of RBC was observed (guinea pig RBC; αmm (1%)): >60 min
RBC binding / rosette formation [1]: only at a relatively high concentration (low titer) of bacteria
Minimal IC of mannose [2]: .1%
binding of HRP in complex with mAb824 (HRP): remained very weak

LD^wt-PD^wt: naturally-occurring FimH from fecal E. coli strain F18, evolutionary wild-type
mAb21 binding over time course (mAb21): No reliably measurable binding
kact ± SEM (mAb21; mannose presence): >2.0 × 10^−4
kdeact ± SEM (mAb21; mannose presence): >8.5 × 10^−2
keq ± SEM (mAb21; mannose presence): 1.7 × 10^−2 to 2.3 × 10^−2
mAb21 binding to fimbriae (mAb21; presence of 1% alpha-methyl-mannoside, 1 h): somewhat lower
time to 50% of the maximal optical density (OD50) of mAb21 binding (mAb21): ~30 min
RBC binding / rosette formation [1]: could not bind RBC at any concentration
Minimal IC of mannose [2]: .1%
binding of HRP in complex with mAb824 (HRP): remained very weak

B1: FmIH^FocH: wild-type FmIH lectin domain fused to the heterogeneous FocH-type pilin domain (protein)
chain: FSCNVDGGSSIGAGTTSVYVNLDPVIQPGQNLVVDLSQHISCWNDYGGWYDTDHINLVQGSAFAGSLQSYKGSLYWNNVTYPFPLTTNTNVLDIGDKTPMPLPLKLYITPVGAAGGVVIKAGEVIARIHMYKIATLGSGNPRNFTWNIISNNSVVMPTGGCDVSARDVTVTLPDYPGSVPIPLTVRCDQTQSVSYTLSGSVADAGNSIFTNTASFSPAQGVGVQLTRNGTIIPANNTVSLGAVGTSAVSLGLTANYARTGGQVTAGNVQSIIGVTFVYQ
bacterial binding to asialofetuin (asialofetuin; [4]): increased binding relative to the wild-type adhesin

B2: ribonuclease B (RNase B), bovine (enzyme, UniProt P61823 27-150, looked up)
chain: KETAAAKFERQHMDSSTSAASSSNYCNQMMKSRNLTKDRCKPVNTFVHESLADVQAVCSQKNVACKNGQTNCYQSYSTMSITDCRETGSSKYPNCAYKTTQANKHIIVACEGNPYVPVHFDASV
modifications: N-linked high-mannose (Man5) oligosaccharides; biotinylated with Sulfo-NHS-LC-Biotin
Kd [3]: 149 nM
koff [3]: 0.256 s⁻¹
kon [3]: 1.1e+06 M⁻¹ s⁻¹

B3: V33E (protein, listed as Escherichia coli)
chain: FSCNVDGGSSIGAGTTSVYVNLDPVIQPGQNLEVDLSQHISCWNDYGGWYDTDHINLVQGSAFAGSLQSYKGSLYWNNVTYPFPLTTNTNVLDIGDKTPMPLPLKLYITPVGAAGGVVIKAGEVIARIHMYKIATLGSGNPRNFTWNIISNNSVVMPTGG
bacterial binding to asialofetuin (asialofetuin; [4]): activation of the binding phenotype

B4: F63E (protein, listed as Escherichia coli)
chain: FSCNVDGGSSIGAGTTSVYVNLDPVIQPGQNLVVDLSQHISCWNDYGGWYDTDHINLVQGSAEAGSLQSYKGSLYWNNVTYPFPLTTNTNVLDIGDKTPMPLPLKLYITPVGAAGGVVIKAGEVIARIHMYKIATLGSGNPRNFTWNIISNNSVVMPTGG
bacterial binding to asialofetuin (asialofetuin; [4]): activation of the binding phenotype

B5: L32E (protein, listed as Escherichia coli)
chain: FSCNVDGGSSIGAGTTSVYVNLDPVIQPGQNEVVDLSQHISCWNDYGGWYDTDHINLVQGSAFAGSLQSYKGSLYWNNVTYPFPLTTNTNVLDIGDKTPMPLPLKLYITPVGAAGGVVIKAGEVIARIHMYKIATLGSGNPRNFTWNIISNNSVVMPTGG
bacterial binding to asialofetuin (asialofetuin; [4]): did not increase binding
bacterial binding to asialofetuin (asialofetuin; mutation in FmIH^FocH): decreased the binding properties of FmIH^FocH
